Source: US20130012709A1, “NOVEL INHIBITORS OF STEAROYL-CoA-DESATURASE-1 AND THEIR USES” (CENTRE NATIONAL DE LA RECHERCHE SCIENTIFIQUE, priority 2009, published 2013)
Like-named read-outs stand apart in the source and are kept apart here. One block for each compound: values may come before it.

What was measured:
C4-2 cells [1] = test: Flow cytometry analysis of cell cycle; format: cell-based, human; settings: 25 μM, 48 h; untreated cells 22
Procedure: (§1) Cells were then rinsed in PBS, pelleted at 400 g for 5 min and maintained on ice for 20 min before resuspension in a […] propidium iodide (Sigma) solution. Cells were kept overnight at 4° C. and the percentages of cells in G1, S and G2-M phases of the cell cycle were measured with a Coulter Epics XL™ flow cytometer (Becton Dickinson) using 488-nm laser excitation. For apoptosis experiment, MEFs were treated with the tested compound at 25 μM for 24 h, then rinced in PBS, pelleted at 400 g for 5 min and stained with annexinV-FITC (Roche Diagnostics, Meylan, France) for 15 min at 4° C. The percentage of annexin positive cells was immediately analysed using 488-nm laser excitation.

LNCaP cells [2] = test: Flow cytometry analysis of cell cycle; format: cell-based, human; settings: 25 μM, 48 h; untreated cells 20
Procedure: as §1

C4-2 cells [3] = test: MTT assay (cell viability); settings: 48 h
Procedure: (§2) After 48 h, medium was removed and 250 μl of a 5 mg/ml MTT (Sigma, St Louis, Mo., USA) solution in PBS was added to each well. After 4 h incubation at 37° C., the MTT solution was removed, 200 μl of DMSO (Sigma) was added and cells were incubated for 5 min. Two hundred microliters of each samples was distributed in 96-well plates for an optical density reading at 540 nm.

C4-2 cells [4] = test: Proliferation by BrDU incorporation
Procedure: (§3) LNCaP and C4-2 cells grown on coverslips were incubated for 4 hours with BrdU (100 μM final) at 24 hours and 48 hours following SCD-1 knock-down. Cells were then fixed and permeabilized with cold methanol for 10 min at −20° C. After 3 washes with PBS, DNA was denaturated with 4NHCL for 10 min at RT, and cells were incubated with blocking buffer (PBS-1% BSA). BrDU was then detected with anti-BrDU monoclonal antibody 1:50 (Dako, Carpinteria, Calif.) for 1 hour at 37° C. After 3 washes with PBS, cells were incubated with an FITC-conjugated anti-mouse secondary antibody 1:150 (Jackson Immunoresearch) for 30 min at 37° C., and slides were mounted in mowiol.

LNCaP cells [5] = test: Proliferation by BrDU incorporation; format: cell-based, human
Procedure: as §3

C4-2 cells [6] = system: C4-2 cells
Procedure: as §2

SCD1 mRNA and protein = test: SCD-1 knock-down by siRNA, mRNA and protein expression; format: cell-based, human
Procedure: For small interfering (si) RNA experiments, transfection of LNCaP or C4-2 cells was carried out with pre-designed ON-TARGET plus siRNA oligonucleotides control or targeting the human SCD-1 sequence GCACAUCAACUUCACCACA (Dharmacon, Lafayette, Co, USA).
Nucleofaction of cells with 2.5 μg siRNA were performed on 2×10^6 cells using Amaxa nucleofactor R kit (Lonza, Cologne, Germany). Twenty-four hours and 48 hours after transfection, cells were processed for cell proliferation by BrdU staining and harvested for RNA and protein analysis.
RNA was extracted with the use of TRI-Reagent (Euromedex, Mundolsheim, France) according to the manufacturers' recommendations. Reverse transcription of total RNA was performed at 37° C. using the M-MLV reverse transcriptase (Invitrogen) and random hexanucleotide primers (Promega, Madison, Wis.), followed by a 15 min inactivation at 70° C. Quantitative PCR was conducted using the primers specific for human SCD1 and SYBR Green Light Cycler Master Mix (Eurofins MWG Operon, Roissy CDG). […] Values are expressed as the relative mRNA level of specific gene expression as obtained using the formula 2^−(ΔCt).

melting point: 202 °C
Compound: COc1ccc(Br)c(C(=O)N2CCN(S(=O)(=O)c3ccc(F)cc3)CC2)c1 [Example 2, 1-[(2-bromo-5-methoxybenzoyl)]-4-[(4-fluorophenyl)sulfonyl]piperazine]
% C4-2 cells in phase S at 25 μM (C4-2 cells [1]): 11.8%
% LNCaP cells in phase S at 25 μM (LNCaP cells [2]): 5%
Viable C4-2 cells at 25 μM (% of control) (C4-2 cells [3]): 49 % of control
inhibition at 25 µM (C4-2 cells [4]; Homo sapiens, C4-2, 48 h, read-out: % Inhibition of proliferation at 25 μM (BrDU) on C4-2): 37.2 ± 8.8%

Compound: COc1ccc(Br)c(C(=O)N2CCN(S(=O)(=O)c3cccc(F)c3)CC2)c1 [Example 15, 1N-[(2-bromo-5-methoxybenzoyl)]-4N-[(3-fluorophenyl)sulfonyl]piperazine]
% Inhibition of proliferation at 25 μM (BrDU) on LNCaP (LNCaP cells [5]; 25 μM, 48 h of treatment): 0%
Viable C4-2 cells at 25 μM (% of control) (C4-2 cells [6]): 83 % of control
% Inhibition of proliferation at 25 μM (BrDU) on C4-2 (C4-2 cells [4]; 25 μM, 48 h of treatment): 35.7 ± 6%

Compound: siRNA: pre-designed ON-TARGET plus siRNA oligonucleotides targeting the human SCD-1 sequence GCACAUCAACUUCACCACA (Dharmacon) (chemistry not given here) [reference compound]
proliferation after SCD-1 knock-down (LNCaP cells [5]; LNCaP, siRNA): marked decrease
SCD1 mRNA and protein expressions (SCD1 mRNA and protein): blocked
proliferation after SCD-1 knock-down (C4-2 cells [4]; C4-2, siRNA): marked decrease
